Measured values taken from ChEMBL document CHEMBL1201862, “PubChem BioAssay data set” (2004).
Calls of active or inactive are those of the source.

Tests used:
[1] = growth suppression of beta-catenin-knockout colon cells, dose response, cell-based, HCT116, human colon tumor (AID 1045); format: functional;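 also: HCT116 colon tumor cells with beta catenin knocked out; cells exposed to compound for 60 hours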
[2] = target: T1, Histone-lysine N-methyltransferase NSD2 (Homo sapiens, UniProt O96028); format: biochemical
T1 sequence (O96028 whole entry): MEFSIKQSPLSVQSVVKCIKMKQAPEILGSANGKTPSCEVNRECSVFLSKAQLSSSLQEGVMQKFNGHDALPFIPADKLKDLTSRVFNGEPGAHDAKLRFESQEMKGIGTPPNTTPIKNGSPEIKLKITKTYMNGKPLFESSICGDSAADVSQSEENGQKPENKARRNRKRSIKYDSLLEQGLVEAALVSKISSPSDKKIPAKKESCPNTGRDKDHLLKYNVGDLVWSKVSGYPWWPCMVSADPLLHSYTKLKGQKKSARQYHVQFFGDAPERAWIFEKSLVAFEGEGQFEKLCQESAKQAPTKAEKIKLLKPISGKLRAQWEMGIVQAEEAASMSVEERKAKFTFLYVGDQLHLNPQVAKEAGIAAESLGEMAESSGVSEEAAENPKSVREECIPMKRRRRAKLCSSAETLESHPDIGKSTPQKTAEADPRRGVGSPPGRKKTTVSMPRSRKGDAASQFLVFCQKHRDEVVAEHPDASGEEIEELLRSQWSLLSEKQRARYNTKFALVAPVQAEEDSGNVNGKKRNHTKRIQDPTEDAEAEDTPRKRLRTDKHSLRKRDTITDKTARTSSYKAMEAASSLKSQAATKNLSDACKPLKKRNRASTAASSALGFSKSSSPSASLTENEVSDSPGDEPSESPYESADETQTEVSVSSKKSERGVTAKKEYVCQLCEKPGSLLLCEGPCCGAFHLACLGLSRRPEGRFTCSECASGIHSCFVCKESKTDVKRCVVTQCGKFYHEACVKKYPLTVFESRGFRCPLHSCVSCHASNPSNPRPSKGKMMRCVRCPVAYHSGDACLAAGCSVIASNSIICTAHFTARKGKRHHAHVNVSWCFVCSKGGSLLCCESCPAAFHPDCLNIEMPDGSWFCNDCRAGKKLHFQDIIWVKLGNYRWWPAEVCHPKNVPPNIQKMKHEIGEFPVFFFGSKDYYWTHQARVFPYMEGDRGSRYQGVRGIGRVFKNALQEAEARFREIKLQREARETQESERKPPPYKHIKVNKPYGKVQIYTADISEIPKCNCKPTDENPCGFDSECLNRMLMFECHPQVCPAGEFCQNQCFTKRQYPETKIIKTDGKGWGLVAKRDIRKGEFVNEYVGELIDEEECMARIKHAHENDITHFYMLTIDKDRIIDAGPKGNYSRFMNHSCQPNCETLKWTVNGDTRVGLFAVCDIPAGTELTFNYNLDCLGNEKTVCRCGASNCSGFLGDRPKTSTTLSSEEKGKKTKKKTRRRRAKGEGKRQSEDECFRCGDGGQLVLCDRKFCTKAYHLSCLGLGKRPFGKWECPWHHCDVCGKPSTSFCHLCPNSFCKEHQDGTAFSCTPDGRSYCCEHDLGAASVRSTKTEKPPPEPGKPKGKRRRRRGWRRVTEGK

SMILES	EC50 [1]	AC50 [2]
COc1ccc(CNC(=O)c2c(C)oc3c2C(=O)c2ccccc2C3=O)cc1	13.9 µM (active)	–
CC(C)c1ccc(S(=O)(=O)/N=C2\C=C(NS(=O)(=O)c3ccccc3)C(=O)c3ccccc32)cc1	–	4 µM (active)
